Measured values published in ChEMBL document CHEMBL1141201, “Phosphinate, sulfonate, and sulfonamidate dipeptides as potential inhibitors of Escherichia coli aminopeptidase N” (Bioorg Med Chem Lett, 2005).

What follows are compounds tested against T1, Aminopeptidase N (Escherichia coli K-12, UniProt P04825) (assay: Inhibitory activity against aminopeptidase N (PepN) from Escherichia coli).
T1 sequence (P04825 whole entry): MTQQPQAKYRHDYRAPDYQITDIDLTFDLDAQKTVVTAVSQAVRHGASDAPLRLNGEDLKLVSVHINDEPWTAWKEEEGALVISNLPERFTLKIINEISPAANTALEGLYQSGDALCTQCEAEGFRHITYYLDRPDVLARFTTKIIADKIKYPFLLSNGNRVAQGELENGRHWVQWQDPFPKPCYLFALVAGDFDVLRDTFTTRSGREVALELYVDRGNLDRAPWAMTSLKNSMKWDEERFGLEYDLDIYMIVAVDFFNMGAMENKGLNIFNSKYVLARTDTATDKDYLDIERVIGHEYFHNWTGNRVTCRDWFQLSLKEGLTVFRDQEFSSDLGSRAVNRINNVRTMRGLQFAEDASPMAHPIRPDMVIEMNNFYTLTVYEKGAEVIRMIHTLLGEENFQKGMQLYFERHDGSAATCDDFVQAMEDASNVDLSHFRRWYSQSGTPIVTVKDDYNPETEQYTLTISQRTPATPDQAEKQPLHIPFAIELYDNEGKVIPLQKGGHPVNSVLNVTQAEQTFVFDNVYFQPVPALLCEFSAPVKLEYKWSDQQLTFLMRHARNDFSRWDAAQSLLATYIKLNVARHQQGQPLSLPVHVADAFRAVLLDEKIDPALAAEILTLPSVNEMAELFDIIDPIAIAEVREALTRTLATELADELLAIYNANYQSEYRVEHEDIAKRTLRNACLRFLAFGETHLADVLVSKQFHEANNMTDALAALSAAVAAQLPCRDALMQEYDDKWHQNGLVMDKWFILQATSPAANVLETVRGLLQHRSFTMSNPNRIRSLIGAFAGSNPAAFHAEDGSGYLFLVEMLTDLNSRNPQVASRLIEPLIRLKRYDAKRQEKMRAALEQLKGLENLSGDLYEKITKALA

Structure (SMILES) | Ki
CC(NS(=O)(=O)C(C)N)C(=O)O (stereo not given) | > 300 µM
CCCCCCCCC(CP(=O)(O)C(C)N)C(=O)O (stereo not given) | 1.1 µM
CC(OS(=O)(=O)C(C)N)C(=O)O (stereo not given) | > 300 µM
C/C(=C\P(=O)(O)C(C)N)C(=O)O (stereo not given) | 1 µM
CC(CP(=O)(O)C(C)N)C(=O)O (stereo not given) | 10 µM
